# Results reported in patent US20180098997A1, “PHARMACEUTICAL DOSES FOR A BROMODOMAIN AND EXTRATERMINAL PROTEIN (BET) INHIBITOR” (Oncoethix GmbH, priority 2015, published 2018).
# Where two headings read alike, the source gives them in different places.
# How the values were obtained:
# [1] = system: leukemia, diffuse large B-cell lymphoma, other lymphomas or multiple myeloma; test: Objective responses in patients; type: in vivo, human; details: patients receiving 10 or 20 mg per day
# Description: With regard to the compound of Formula (1), an effective dose is a dose that inhibits a protein in the bromodomain and extraterminal protein family to a sufficient degree that a desired objective response is observed. An objective response may be a complete response (all detectable tumor or blast cell has disappeared), a partial response (roughly corresponds to at least a 50% decrease in the total tumor volume or blast cell amount but with evidence of some residual disease still remaining), or a minor response (roughly means a small amount of tumor shrinkage or blast cell reduction). Thus, an objective response can include a response where blast cell amount reduction is observed, or where tumor shrinkage is observed in the patient.
# (§1) Doses of the compound of Formula (1) were administered to patients having leukemia, hematologic malignancies, diffuse large B-cell lymphoma, other lymphomas or multiple myeloma, and dose limiting toxicity and objective responses were observed.
# Compound of Formula (1) once-a-day doses of 10, 20, 40, 80, 120 and 160 mg and twice-a-day doses of 40 mg were administered to patients with leukemia, diffuse large B-cell lymphoma, other lymphomas or multiple myeloma. In this study, objective responses were not observed in patients receiving 10 or 20 mg per day.
# [2] = system: BET (bromodomains and extraterminal) proteins, which include BRD2, BRD3, and BRD4; details: U.S. 2010/0286127 A1; cited from earlier work
# [3] = Dose limiting toxicity in patients with acute leukemia or hematologic malignancies; type: in vivo, human
# Description: Dose-limiting toxicity corresponds to side-effect toxicity such that the side-effects are severe enough to impose restrictions on, or to prevent administration of, the dose. Clinically significant toxicity includes but is not limited to intolerable levels in a patient of thrombocytopenia, neutropenia, fatigue, diarrhea, anemia, mucositis, and other side effects known to be associated with elevated levels of bromodomain and extraterminal protein inhibitors.
# as §1
# Compound of Formula (1) dose-limiting toxicity was evaluated in patients with acute leukemia and hematologic malignancies.
# [4] = Phase I dose escalation population pharmacokinetics in patients with hematologic malignancies (plasma UPLC-MS/MS, Monolix PPK model); type: in vivo, human; details: for CL [mean +/- SD] / V [mean +/- SD]: apparent (F set to 1); for Cmin [mean +/- SD]: predose at Day 8; for AUC(0-t): read-out: AUC0-24 hr [mean +/- SD]; for Cmax: read-out: Cmax [mean +/- SD]
# Description: Solid dispersions were prepared using the compound of Formula (1) and hydroxylpropylmethylcellulose acetate succinate (HPMCAS) at both 25% and 50% of compound loading. Solid dispersions were prepared by a solvent evaporation method, using spray-drying followed by secondary drying in a low-temperature convection oven. Dispersions containing 10 mg, 20 mg, 40 mg, 80 mg, 120 mg and 160 mg, of the compound, were prepared into capsules and administered to patients Pharmacokinetics (PK) of the compound of Formula (1) as single agent were characterized in patients with hematologic malignancies, including a population pharmacokinetic modeling. A multicenter, dose escalation study in cohorts of 3 to 6 patients with acute leukemia or other hematologic malignancies was performed with a dose escalation step followed by expansion cohorts at the recommended dose. Patients received oral compound of Formula (1) from 10 to 160 mg according to different schedules. Schedules included once a day dosing with 21-day cycles, acute leukemia (AL); 14 days on/7 days off, hematologic malignancies (OHM). Continuous PK blood samples from 7 time points over 24 hours post-administration were collected on day 1 of cycle 1 for the first 3 patients per DL, and 5 time points over 8 hours post-administration for other patients at this DL. Residual sampling before administration on days 8, 15 and 22 was performed in all patients. Compound plasma concentrations were measured using validated ultra-performance liquid chromatography with tandem mass spectrometry detection with a concentration range 1-250 ng/mL, with a small plasma volume for analysis (50 μL). Analyses and population PK (PPK) modeling were performed with the nonlinear mixed effect modeling software program Monolix version 4.3. The following parameters were calculated: absorption constant (Ka); apparent distribution volume (V/F); apparent clearance (CL/F) and lean body mass (LBM; calculated considering patient sex, weight and height). Parameters were estimated by computing the maximum likelihood estimator without linearization using the stochastic approximation expectation maximization (SAEM) algorithm combined with a Markov Chain Monte Carlo (MCMC) procedure. The number of MCMC chains was fixed at 10 for all estimations. A constant error model was used to describe residual and Between-Subject Variability (BSV, η) were ascribed to an exponential model. In the absence of intravenous data, the initial bioavailability (F) was set to 1, meaning that clearance (CL) and volume of distribution (V) should be interpreted as the apparent clearance (CL/F) and apparent volume of distribution (V/F), respectively. Eighty-five patients enrolled and treated and randomized to six dose levels (10, 20, 40, 80, 120 and 160 mg) once-a-day and 40 mg twice-a-day. Among them, 81 patients with 630 plasma concentrations (607+23 BLQ) were evaluable for PK assessment. A 1-compartment open model adequately described the total compound concentration-time curve. […] The absorption phase was linear and Tmax was between 1 and 4 h. […] In the PPK study, the best descriptive model was obtained when LBM was considered in the analysis. A correlation between CL/F and V/F was also observed for compound. A total of 81 patients (52 male, 29 female) were evaluable for PK (40 AL patients, 41 OHM patients), with a total of […] available for analysis.
# [5] = 10 mg QD oral, n = 8, derived from EBE
# [6] = 20 mg QD oral, n = 6, derived from EBE
# [7] = 40 mg BID oral, n = 13, derived from EBE
# [8] = 40 mg QD oral, n = 8, derived from EBE
# [9] = 80 mg QD oral, n = 11, derived from EBE
# [10] = 120 mg QD oral, n = 30, derived from EBE
# [11] = 160 mg QD oral, n = 5, derived from EBE
# [12] = PPK structural model, 1-compartment open model, 81 patients, all dose levels
compound,measurement,setting,value
"Cc1sc2c(c1C)C(c1ccc(Cl)cc1)=N[C@@H](CC(=O)Nc1ccc(O)cc1)c1nnc(C)n1-2 [Compound of Formula (1), (S)-2-(4-(4-chlorophenyl)-2,3,9-trimethyl-6H-thieno[3,2-f][1,2,4]triazolo[4,3-a][1,4]diazepin-6-yl)-N-(4-hydroxyphenyl)acetamide]",objective responses,[1],not observed
same,inhibition of binding of acetylated histone H4 to BET proteins,[2],inhibit the binding
same,"Dose Limiting Toxicity, observed toxicity","[3]; Acute Leukemia, 20 mg QD, 6 patients",0 patients
same,"Dose Limiting Toxicity, observed toxicity","[3]; Acute Leukemia, 40 mg BID, 6 patients",0 patients
same,"Dose Limiting Toxicity, observed toxicity","[3]; Acute Leukemia, 40 mg QD, 4 patients",0 patients
same,"Dose Limiting Toxicity, observed toxicity","[3]; Acute Leukemia, 80 mg QD, 4 patients",0 patients
same,"Dose Limiting Toxicity, observed toxicity","[3]; Acute Leukemia, 120 mg QD, 11 patients",0 patients
same,"Dose Limiting Toxicity, observed toxicity","[3]; Acute Leukemia, 160 mg QD, 5 patients (diarrhea and fatigue/anorexia)",2 patients
same,"Dose Limiting Toxicity, observed toxicity","[3]; Older Adult Hematologic Malignancies, 20 mg QD, 6 patients",0 patients
same,"Dose Limiting Toxicity, observed toxicity","[3]; Older Adult Hematologic Malignancies, 40 mg BID, 6 patients (thrombocytopenia)",5 patients
same,"Dose Limiting Toxicity, observed toxicity","[3]; Older Adult Hematologic Malignancies, 40 mg QD, 3 patients",0 patients
same,"Dose Limiting Toxicity, observed toxicity","[3]; Older Adult Hematologic Malignancies, 80 mg QD, 7 patients (thrombocytopenia)",2 patients
same,"Dose Limiting Toxicity, observed toxicity","[3]; Older Adult Hematologic Malignancies, 120 mg QD, 18 patients (thrombocytopenia, hypo Na, neutropenia, fatigue, diarrhea, mucositis)",10 patients
same,CL [mean +/- SD],[4]; [5],8.53 L/h
same,V [mean +/- SD],[4]; [5],72.1 L
same,Cmin [mean +/- SD],"[4]; 10 mg QD oral, n = 8, observed values",22.5 ng/mL
same,CL [mean +/- SD],[4]; [6],7.06 L/h
same,V [mean +/- SD],[4]; [6],57.6 L
same,Cmin [mean +/- SD],"[4]; 20 mg QD oral, n = 6, observed values",50.5 ng/mL
same,CL [mean +/- SD],[4]; [7],6.57 L/h
same,V [mean +/- SD],[4]; [7],57.46 L
same,Cmin [mean +/- SD],"[4]; 40 mg BID oral, n = 13, observed values",351.16 ng/mL
same,CL [mean +/- SD],[4]; [8],7.66 L/h
same,V [mean +/- SD],[4]; [8],58.65 L
same,Cmin [mean +/- SD],"[4]; 40 mg QD oral, n = 8, observed values",47.7 ng/mL
same,CL [mean +/- SD],[4]; [9],7.83 L/h
same,V [mean +/- SD],[4]; [9],71.14 L
same,Cmin [mean +/- SD],"[4]; 80 mg QD oral, n = 11, observed values",113.7 ng/mL
same,CL [mean +/- SD],[4]; [10],7.81 L/h
same,V [mean +/- SD],[4]; [10],63.32 L
same,Cmin [mean +/- SD],"[4]; 120 mg QD oral, n = 30, observed values",325.4 ng/mL
same,CL [mean +/- SD],[4]; [11],12.10 L/h
same,V [mean +/- SD],[4]; [11],96.66 L
same,Cmin [mean +/- SD],"[4]; 160 mg QD oral, n = 5, observed values",215.0 ng/mL
same,absorption constant (Ka),[4]; [12],0.74 h⁻¹
same,apparent clearance (CL/F),[4]; [12],8.45 L/h
same,apparent distribution volume (V/F),[4]; [12],71.7 L
same,half-life,"[4]; both sexes, human, plasma, oral, all patients, read-out: Mean elimination half-life (converted)",5.8 h
same,AUC(0-t),"[4]; both sexes, human, plasma, po, 10 mg, 10 mg QD oral, n = 8, derived from EBE",1190 ng·h/mL
same,AUC(0-t),"[4]; both sexes, human, plasma, po, 20 mg, 20 mg QD oral, n = 6, derived from EBE",2930 ng·h/mL
same,AUC(0-t),"[4]; both sexes, human, plasma, po, 40 mg, 40 mg BID oral, n = 13, values doubled to mimic 80 mg (2 × 40 mg)",13100 ng·h/mL
same,AUC(0-t),"[4]; both sexes, human, plasma, po, 40 mg, 40 mg QD oral, n = 8, derived from EBE",5500 ng·h/mL
same,AUC(0-t),"[4]; both sexes, human, plasma, po, 80 mg, 80 mg QD oral, n = 11, derived from EBE",12500 ng·h/mL
same,AUC(0-t),"[4]; both sexes, human, plasma, po, 120 mg, 120 mg QD oral, n = 30, derived from EBE",17200 ng·h/mL
same,AUC(0-t),"[4]; both sexes, human, plasma, po, 160 mg, 160 mg QD oral, n = 5, derived from EBE",13900 ng·h/mL
same,Cmax,"[4]; both sexes, human, plasma, 40 mg BID oral, n = 13, derived from EBE",550 ng/mL
same,Cmax,"[4]; both sexes, human, plasma, 80 mg QD oral, n = 11, derived from EBE",1150 ng/mL
same,Cmax,"[4]; both sexes, human, plasma, 120 mg QD oral, n = 30, derived from EBE",1470 ng/mL
same,Cmax,"[4]; both sexes, human, plasma, 160 mg QD oral, n = 5, derived from EBE",1290 ng/mL
same,Tmax,"[4]; both sexes, human, plasma, oral, all dose levels",1 to 4 h
same,half-life,"[4]; human, plasma, po, 10 mg, 10 mg QD oral, n = 8, derived from EBE, read-out: T1/2 [mean +/- SD] (converted)",5.84 h
same,half-life,"[4]; human, plasma, po, 20 mg, 20 mg QD oral, n = 6, derived from EBE, read-out: T1/2 [mean +/- SD] (converted)",5.63 h
same,half-life,"[4]; human, plasma, po, 40 mg, 40 mg BID oral, n = 13, derived from EBE, read-out: T1/2 [mean +/- SD] (converted)",6.22 h
same,half-life,"[4]; human, plasma, po, 40 mg, 40 mg QD oral, n = 8, derived from EBE, read-out: T1/2 [mean +/- SD] (converted)",5.33 h
same,half-life,"[4]; human, plasma, po, 80 mg, 80 mg QD oral, n = 11, derived from EBE, read-out: T1/2 [mean +/- SD] (converted)",5.51 h
same,half-life,"[4]; human, plasma, po, 120 mg, 120 mg QD oral, n = 30, derived from EBE, read-out: T1/2 [mean +/- SD] (converted)",5.91 h
same,half-life,"[4]; human, plasma, po, 160 mg, 160 mg QD oral, n = 5, derived from EBE, read-out: T1/2 [mean +/- SD] (converted)",5.48 h
same,Cmax,"[4]; human, plasma, 10 mg QD oral, n = 8, derived from EBE",131 ng/mL
same,Cmax,"[4]; human, plasma, 20 mg QD oral, n = 6, derived from EBE",275 ng/mL
same,Cmax,"[4]; human, plasma, 40 mg QD oral, n = 8, derived from EBE",627 ng/mL
